Where “and” joins values, the source holds several entries; their conditions need not be identical. Equal entries are not always repeated. Where two headings read alike, the source gives them in different places.
Legend:
[1] = system: onion; assay: High temperature stress resistance of onion via allantoin application (Experiment 2); format: in vivo, onion (variety: Neoearth); conditions: for viability 3 days after the heat shock treatment: 1 mM allantoin 40 ml/pot 6 days after sowing
Method: (§1) A 5-cm polypot was mounted on a balance dish BD-2 (AS ONE Corporation), 70 ml of vermiculite (Protoleaf Inc.) was introduced thereinto, 80 ml of culture soil (TAKII & CO., LTD.) was further introduced thereinto, 3 seeds of onion (variety: Neoearth; TAKII & CO., LTD.) were sowed at 3 positions, and 20 ml of vermiculite was further introduced thereinto, so as to cover the soil. Thereafter, 50 ml of tap water was supplied to the balance dish two times. The polypot (together with the balance dish) was mounted on a bat, and the resultant was then introduced into an incubator at 22° C. and 10,000 Lux for a light period of 12 hours and a dark period of 12 hours, so as to initiate cultivation. The day on which cultivation was initiated was designated as Day 0 after sowing. Germination was observed 5 days after sowing. While leaving 3 plants in each pot (i.e., a plant in each position), other plants were removed therefrom 6 days after sowing.
Tap water or an aqueous solution of 1 mM allantoin was applied to each test group (40 ml/pot) 6 days after sowing (hereafter, referred to as the “water treatment group” or the “allantoin treatment group,” respectively). Tap water was applied to all the pots (40 ml/pot) 11 days after sowing. The pots mounted on the bats were introduced into the incubator 13 days after sowing (at the 2-true-leaf stage in the case of onions), and the plants were exposed to high temperature stress at 45° C. for 1 hour, 1.5 hours, and 2 hours. Soil in the pots was sufficiently humidified before and after high temperature stress application. After the completion of the high temperature stress treatment, the temperature in the incubator was cooled to 22° C., and cultivation was continued. Water was supplied 2 days after the heat shock treatment (40 ml/pot). Thereafter, water was supplied in an amount of 40 ml per pot at intervals of 2 days.
(§2) The “viability” indicates the proportion of the number of survived plants relative to the number of plants subjected to the heat shock treatment. The viability was calculated by regarding plants that would no longer grow (i.e., the plants with the youngest leaves suffering from physical damage, such as whitening, withering, or curling of leaves) as plants that are not survived.

[2] = system: Arabidopsis thaliana; conditions: application of allantoin to Arabidopsis thaliana; cited from earlier work
[3] = system: wild-type Arabidopsis thaliana; conditions: allantoin administered to wild-type Arabidopsis thaliana; cited from earlier work
[4] = system: Arabidopsis thaliana; assay: High temperature stress resistance of Arabidopsis thaliana cultivated in allantoin-containing medium (Experiment 6); format: in vivo; conditions: 10 μM, 100 μM or 1,000 μM allantoin in ½ MS solid medium; 45° C. 105 minutes; grown 1 week
Method: The wild-type (WT) line of Arabidopsis thaliana (L.) Heynh., accession Columbia-0 described in Experiment 1 was used.
The ½ MS solid medium described in Experiment 1 (Table 1) was used (10 μM, 100 μM, or 1,000 μM allantoin was further added to the allantoin-supplemented group, allantoin was not added to the allantoin-free group, a deep sterilized petri dish No. 903 VALMARK; Ina-Optika Corporation).
(5) In the petri dish, a circular accommodation part (a plane view) is divided into 2 semicircular compartments by a partition wall extended toward a diametrical direction. The allantoin-free ½ MS solid medium was accommodated in one of the compartments of the petri dish, the allantoin-supplemented ½ MS solid medium was accommodated in another compartment, and 15 seeds were sowed in each compartment (i.e., 30 seeds in total per petri dish) (FIG. 5A).
(8) The resultant was transferred to a culture chamber and cultured therein at 22° C. under long-day conditions (light application for 16 hours under fluorescent light: 0.07 mmol photons […] s^−1) for 7 days. […]
(10) Thereafter, the petri dish was cooled in an incubator at 23° C. for 10 to 15 minutes, and the plants were then allowed to grow again for 1 week under the conditions (8). […] The viability was evaluated on the basis of such phenomenon. […]

[5] = system: HSF3 (AGI code: AT5G16820); assay: HSF3 gene expression, quantitative PCR, cultivation in allantoin-containing medium (Experiment 5); format: in vivo, Arabidopsis thaliana; conditions: 1 mM allantoin in ½ MS solid medium, 14 days, leaves and stems, reference gene ACT2
Method: (§3) Seeds of wild-type Arabidopsis thaliana line (Columbia-0) were sterilized in 2.5% (v/v) sodium hypochlorite, sowed in the ½ MS solid medium described in Experiment 1 (Table 1) (the medium was supplemented with 1 mM allantoin; allantoin was not added to the control group: a deep petri dish with a diameter of 90 mm and a height of 20 mm), and then allowed to grow under long-day conditions (in an incubator at 5,000 Lux, a light period of 16 hours and a dark period of 8 hours, 22° C.) for 14 days. Using a commercialized kit, RNA extraction from leaves and stems of Arabidopsis thaliana (NucleoSpin RNAII, MACHEREY-NAGEL), reverse transcription (ReverTra Ace qPCR RT Master Mix, TOYOBO), and quantitative PCR (KAPA SYBR FAST qPCR Master Mix, KAPABIOSYSTEMS) were carried out. As a reference gene, ACT2 (AGI code: AT3G18780) was used. As a result, the relative expression level of DREB2A (AGI code: AT5G05410; SEQ ID NO: 1) and that of HSF3 (AGI code: AT5G16820; SEQ ID NO: 2) were 2.2 times and […] greater than the expression level of the control group, respectively.

[6] = system: DREB2A (AGI code: AT5G05410); assay: DREB2A gene expression, quantitative PCR, cultivation in allantoin-containing medium (Experiment 5); format: in vivo, Arabidopsis thaliana; conditions: 1 mM allantoin in ½ MS solid medium, 14 days, leaves and stems, reference gene ACT2
Method: as §3

[7] = system: creeping bentgrass; format: in vivo, creeping bentgrass (variety: 007); conditions: measured Day 15
Method: (§4) A polypot with 5 cm each side was placed on a balance dish BD-2 (AS ONE Corporation), and 120 ml of joint- and bed-soil for turf grass (TACHIKAWA HEIWA NOUEN CO., LTD.) was then added into the pot. Thereafter, 140 mg of seeds of creeping bentgrass (variety: 007, Power Shop FUJI) was seeded on the soil, and 3 ml of the soil was further added onto the seeds. Thereafter, 10 ml of tap water was supplied to the balance dish. The polypot (together with the balance dish) was placed on a tray, and was then placed in an artificial climate chamber having a temperature of 20° C., a light intensity of 300 μmol/m^2/s, a light period of 16 hours, a dark period of 8 hours, and a humidity of 70%, and thereafter, cultivation was initiated. The day on which cultivation was initiated was defined as Day 0 after sowing. On Day 2 after sowing, 40 ml/pot tap water was applied to all pots. On Day 5 after sowing, germination was confirmed.
On Days 6, 11 and 13 after sowing, tap water (hereinafter referred to as a “water group”) or a 0.5 or 1 mM allantoin aqueous solution (hereinafter referred to as an “allantoin group”) was applied, in an amount of 40 ml/pot, to individual experiment groups. On and after Day 13 after sowing, a difference was found in the growth of turf glasses among individual groups. On Day 15, 20 turf grasses were selected from each pot, and the grass height and fresh weight of each grass were then measured. Based on the measured values, a mean value was calculated.

[8] = system: rice; conditions: rice seeds immersed in 300 mg/L allantoin solution for 24 hours; cited from earlier work
[9] = system: Brassica chinensis komatsuna; assay: High temperature stress resistance of Brassica chinensis komatsuna via allantoin application (Experiment 3); format: in vivo, Brassica chinensis komatsuna (variety: Rakuten); conditions: 1 mM allantoin 40 ml/pot 6 and 13 days after sowing, 45° C. for 1 hour
Method: as §1, with “Brassica chinensis komatsuna” for “onion”, “Rakuten,” for “Neoearth;”, “the center of the pot,” for “3 positions,”, “bat” for “bat,”, “and” for “and the resultant was then”, “sowing.” for “sowing. Germination was observed 5 days after sowing. While leaving 3 plants in each pot (i.e., a plant in each position), other plants were removed therefrom 6 days after sowing.”
Germination was observed 3 days after sowing. While leaving one plant in each pot, other plants were removed therefrom 6 days after sowing. […]
as §2

[10] = system: rice (Koshihikari); assay: Leaf Area Index of rice in paddy field after allantoin application to seedlings (Experiment 9); format: in vivo; conditions: for LAI (Leaf Area Index): 1 mM allantoin 3 L per nursery box on Day 26 after sowing, two plant bodies
Method: A 1 mM allantoin aqueous solution or water was applied in an amount of 3 L each to the seedlings of rice (Koshihikari) on Day 26 after sowing (the size of a nursery box: 280×580×28 (mm) (depth×width×height)). A total of the applied dose of allantoin per unit area, which was applied for a single application in Experiment 9, was 3.0 g/m^2 (1.05 g/m^2 relative to allantoin nitrogen) in the 1 mM allantoin group.
Twelve hours after the application, the seedlings were planted in a paddy field, and were then allowed to grow for 55 days and for 63 days. Thereafter, using a leaf area measurement apparatus LAI-2200 (MEIWAFOSIS CO., LTD.), Leaf Area Index (LAI) which indicates the leaf area under conditions in which the plant still grows in the field, was non-destructively measured. LAI was obtained from two plant bodies in each of the allantoin group and the water group (n=2).

[11] = system: creeping bentgrass; format: in vivo, creeping bentgrass (variety: 007); conditions: 1 mM allantoin 40 ml/pot on Days 7, 10 and 13; measured Day 13 after sowing; mean of 20 grasses per pot
Method: as §4
On Days 7, 10 and 13 after sowing, tap water (hereinafter referred to as a “water group”) or a 1 mM allantoin aqueous solution (hereinafter referred to as an “allantoin group”) was applied, in an amount of 40 ml/pot, to individual experiment groups. […]
On Day 13 after sowing, 20 turf grasses were selected from each pot, and the grass height and fresh weight of each grass were then measured. Based on the measured values, a mean value was calculated. […]

[12] = 0.5 mM allantoin 40 ml/pot on Days 6, 11 and 13
[13] = 1 mM allantoin 40 ml/pot on Days 6, 11 and 13

## NC(=O)NC1NC(=O)NC1=O (racemic) [Allantoin]
[1]; 45° C. for 1 hour
  viability 3 days after the heat shock treatment: 66.7%
[1]; 45° C. for 1.5 hours
  viability 3 days after the heat shock treatment: 33.3%
[1]; 45° C. for 2 hours
  viability 3 days after the heat shock treatment: 11.1%
[1]; 1 mM allantoin, 45° C. for 1, 1.5 and 2 hours, compared with 3 days
  viability 8 days after heat shock treatment: same viability
[2]
  plant growth: promoted
[3]
  production of abscisic acid: promoted
[4]
  resistance to high temperature stress (viability): has resistance to high temperature stress
[5]
  relative expression level of HSF3 versus control group: 0.7 times
[6]
  relative expression level of DREB2A versus control group: 2.2 times
[7]; [12]
  Fresh weight: 3 mg
  Grass height: 5.8 cm
[7]; [13]
  Fresh weight: 3.1 mg
  Grass height: 5.9 cm
[8]
  height of the seedlings, number of roots and fresh weight of the seedlings versus water control: increased
[9]
  viability 7 days after the heat shock treatment: 100%
[10]; 55th day in paddy field
  LAI (Leaf Area Index): 1.94 m^2/m^2 and 2.04 m^2/m^2
[10]; 63rd day in paddy field
  LAI (Leaf Area Index): 2.71 m^2/m^2 and 2.82 m^2/m^2
[10]; 55th day
  LAI smaller than the LAI of the water group: approximately 25%
[10]; 63rd day
  LAI smaller than the LAI of the water group: approximately 10%
[11]
  Fresh weight: 2.9 mg
  Grass height: 5.6 cm
